The assay deals with T1, LXRα (Homo sapiens, UniProt Q13133).
T1 construct: expressed in transfected cells; host or cells: CV-1 African green monkey kidney cells (ATCC CCL-70)
T1 sequence (Q13133 1-447): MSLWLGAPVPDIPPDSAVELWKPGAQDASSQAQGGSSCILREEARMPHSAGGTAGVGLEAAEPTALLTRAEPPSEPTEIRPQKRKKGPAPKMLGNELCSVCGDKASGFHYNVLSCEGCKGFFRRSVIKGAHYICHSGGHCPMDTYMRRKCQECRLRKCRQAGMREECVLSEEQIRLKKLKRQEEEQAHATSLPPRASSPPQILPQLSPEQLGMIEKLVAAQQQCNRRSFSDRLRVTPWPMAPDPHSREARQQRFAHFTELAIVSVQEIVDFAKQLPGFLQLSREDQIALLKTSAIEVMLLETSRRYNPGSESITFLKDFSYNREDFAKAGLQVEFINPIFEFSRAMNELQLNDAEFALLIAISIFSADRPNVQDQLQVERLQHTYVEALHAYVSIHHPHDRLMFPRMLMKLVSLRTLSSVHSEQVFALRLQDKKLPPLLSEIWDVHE
T1 sequence (P19793 1-462 partner): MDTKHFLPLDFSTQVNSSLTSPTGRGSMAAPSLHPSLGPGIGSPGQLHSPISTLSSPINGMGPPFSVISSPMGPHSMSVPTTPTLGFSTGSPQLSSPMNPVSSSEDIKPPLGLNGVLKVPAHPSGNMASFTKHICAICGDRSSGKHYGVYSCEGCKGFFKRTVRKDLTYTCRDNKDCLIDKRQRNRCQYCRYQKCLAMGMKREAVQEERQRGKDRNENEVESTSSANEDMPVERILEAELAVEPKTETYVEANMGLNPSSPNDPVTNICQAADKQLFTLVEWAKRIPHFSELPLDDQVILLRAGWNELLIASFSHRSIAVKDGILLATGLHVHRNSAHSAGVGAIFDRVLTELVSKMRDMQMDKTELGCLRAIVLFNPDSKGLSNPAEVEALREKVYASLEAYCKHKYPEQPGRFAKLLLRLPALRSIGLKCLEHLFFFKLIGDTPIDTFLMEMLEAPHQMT
As to the kind of experiment: Co-transfection assay (LXR/LXRE luciferase reporter), LXRα. It is filed as cell-based. To be noted: CV-1 cells transfected with hLXRα and LXRE luciferase reporter; agonist activity; read-out: EC50 value against LXRα. The source says:
The effect of activating or inhibiting LXR transcription activity of a test compound can be measured by a co-transfection which is a cell-based assay. LXR is known to function by forming a heterodimer with RXR. In a co-transfection assay, LXR and RXR expression plasmids and a luciferase reporter expression plasmid containing three copies of an LXR-RXR heterodimer-responding DNA sequence are first inserted into mammalian cells by transient transfection. Next, when the transfected cells are treated with a test compound having LXR agonist activity, the transcription activating effect of LXR is enhanced, and the LXR agonist activity of a test compound can be measured as an increase in luciferase activity.
(1) CV-1 African green monkey kidney cells (ATCC CCL-70)
(2) Co-transfection expression plasmid, pcDNA-hLXRα or pcDNA-hLXRβ, reporter (LXREx3-pTAL-Luc Vector)
(3) Lipofect AMINE, Plus Reagent (Invitrogen) transfection reagent
(4) Cell lysis buffer [Passive lysis buffer; 5× (Promega Corporation) is diluted with distilled water]
(5) Luciferase assay reagent (Promega Corporation)
(6) Medium (Dulbecco's Modified Eagle Medium (Gibco) 500 ml, Gentamicin Reagent Solution (Gibco) 2.5 ml, 2 mM L-Gluta Max I Supplement (Gibco) 5.0 ml, MEM Sodium pyruvate solution (Gibco) 5.0 ml, penicillin-streptomycin (Gibco) 5.0 ml, charcoal/dextran-treated FBS (HyClone) 50 ml) (7) OPTI-MEM I Reduced-Serum Medium (Gibco) Adjustment of Screening Reagents
The aforementioned CV-1 cells were disseminated into a 96-well assay plate (Costar 3610) to a concentration of 2×10^4 cells/[…]/well followed by incubating overnight at 37° C.
DNA transfection was carried out according to the protocol provided with the transfection reagent. 10 μl of OPTI-MEM I Reduced-Serum Medium (Gibco) and 0.5 μl of Lipofect AMINE (Invitrogen) were added to two 50 ml tubes followed by shaking the mixed solutions to obtain Solution A. The substances of (1) below were respectively added to each tube followed by shaking the mixed solutions and allowing to stand undisturbed for 15 minutes to obtain Solution B. In addition, Solution C was obtained by carrying out the same procedure using the substances of (2) below.
(1) 10 μl of OPTI-MEM I Reduced-Serum Medium, 1 μl of Plus Reagent (Invitrogen) and 0.1 μg of DNA [PCMX-LXRα (33 ng) and LXRE (66 ng)];
(2) 10 μl of OPTI-MEM I Reduced-Serum Medium, 1 μl of Plus Reagent (Invitrogen) and 0.1 μg of DNA [PCMX-LXRβ (33 ng) and LXRE (66 ng)].
The entire amount of the aforementioned Solution A was respectively added to the aforementioned Solution B followed by shaking and allowing to stand undisturbed for 15 minutes to obtain LXRα solution. In addition, LXRβ solution was obtained by carrying out the same procedure using the aforementioned Solutions C and A.
After removing the medium from the 96-well assay plate used to Incubate the CV-1 cells as described above by decanting, and completely removing any moisture, 50 μl/well of OPTI-MEM I Reduced-Serum Medium were added to each well followed by addition of the aforementioned LXRα solution or LXRβ solution to each well at 20 μl/well and incubating for 3 hours at 37° C.
Three hours later, 20% charcoal FBS-DMEM was added to each well at 70 μl/well. FBS-DMEM used for the medium was prepared by mixing charcoal and dextran-treated FBS at a ratio of 9:1. Next, test compounds adjusted to concentrations of 1 mM, 0.3 mM, 0.1 mM, 30 μM, 10 μM, 3 μM, 1 μM or 0 μM with DMSO were added to each well at 1.4 μl/well. […]
(Reporter assays use an easily measured gene product as a stand-in for the process of interest.)

`CNC(=O)Cc1ccc(-c2ccc(OCc3ccc(C(F)(F)F)c(O)c3C(=O)OC(C)(C)C)cc2)cc1` [Example 50, tert-Butyl 2-hydroxy-6-[({4′-[2-(methylamino)-2-oxoethyl]-1,1′-biphenyl-4-yl}oxy)methyl]-3-trifluoromethylbenzoate]: the concentration giving a half-maximal response (EC50) was at most 5 µM.

For `CN(C)C(=O)Cc1ccc(-c2ccc(OCc3ccc(C(F)(F)F)c(O)c3C(=O)OC(C)(C)C)cc2)cc1` [Example 49, tert-Butyl 6-[({4′-[2-(dimethylamino)-2-oxoethyl]-1,1′-biphenyl-4-yl}oxy)methyl]-2-hydroxy-3-(trifluoromethyl)benzoate], the 50% effective concentration (EC50) was at most 5 µM. Consider `CC(C)(C)OC(=O)c1c(COc2ccc(-c3ccc(C4(C(=O)O)CC4)cc3)cc2)ccc(C(F)(F)F)c1O` [Example 15, 1-(4′-{[2-(tert-Butoxycarbonyl)-3-hydroxy-4-(trifluoromethyl)benzyl]oxy}-1,1′-biphenyl-4-yl)cyclopropanecarboxylic acid], for which the 50% effective concentration (EC50) is at most 5 µM. For the molecule `CC(C)(C)OC(=O)c1c(COc2ccc(-c3cc(CC(=O)O)ccc3F)cc2)ccc(C(F)(F)F)c1O` [Example 52, (4′-{[2-(tert-Butoxycarbonyl)-3-hydroxy-4-(trifluoromethyl)benzyl]oxy}-6-fluoro-1,1′-biphenyl-3-yl)acetic acid], the EC50 is at most 5 µM. Turning to `CC(C)(C)OC(=O)c1c(COc2ccc(-c3ccc(CC(=O)O)cc3)c(F)c2)ccc(C(F)(F)F)c1O` [Example 14, (4′-{[2-(tert-Butoxycarbonyl)-3-hydroxy-4-(trifluoromethyl)benzyl]oxy}-2′-fluoro-1,1′-biphenyl-4-yl)acetic acid], the concentration giving a half-maximal response (EC50) was at most 5 µM.

For orientation: EC50 means the concentration that produces a half-maximal response.

The values above are taken from patent US7923573B2, “Benzene compound having 2 or more substituents” (Daiichi Sankyo Company, Limited, priority 2004, dated 2011).
